Measurements as given in ChEMBL document CHEMBL5154644, “Design, Synthesis, and Structure-Activity Relationship Optimization of Pyrazolopyrimidine Amide Inhibitors of Phosphoinositide 3-Kinase γ (PI3Kγ)” (J Med Chem, 2022).
Active and inactive are the calls of the source. The calls are words filed in the database; no cut-off is given here.

Columns and labels:
[1] = AUC(0 to infinity) in C57BL/6 mouse at 0.5 mg/kg, iv; type: ADME, organism-based; set-up: time infinity, dose 0.5 mg/kg, route iv; conditions: in vivo
[2] = species: Homo sapiens; experiment: Selectivity ratio of IC50 for inhibition of PI3Kalpha (unknown origin) to IC50 for inhibition of PI3Kgamma (unknown origin)
[3] = Oral bioavailability in Sprague-Dawley rat at 10 mg/kg measured up to 24 hrs by LC-MS/MS analysis; type: ADME, organism-based; conditions: in vivo
[4] = Apparent permeability of the compound across apical to basolateral side in human Caco-2 cells; type: ADME, cell-based
[5] = AUC(0 to infinity) in Beagle dog at 1 mg/kg, iv; type: ADME, organism-based, Canis lupus familiaris; set-up: time infinity, dose 1 mg/kg, route iv; conditions: in vivo
[6] = Clearance in Beagle dog at 1 mg/kg, iv; type: ADME, organism-based, Canis lupus familiaris; conditions: in vivo
[7] = Clearance in C57BL/6 mouse at 0.5 mg/kg, iv; type: ADME, organism-based; conditions: in vivo
[8] = AUC(0 to infinity) in Sprague-Dawley rat at 1 mg/kg, iv measured up to 8 hrs by LC-MS/MS analysis; type: ADME, organism-based; set-up: dose 1 mg/kg, time < 8 hrs, route iv; conditions: in vivo
[9] = Clearance in cynomolgus monkey at 1 mg/kg, iv; type: ADME, organism-based, Macaca fascicularis; conditions: in vivo
[10] = Clearance in Sprague-Dawley rat at 1 mg/kg, iv measured up to 8 hrs by LC-MS/MS analysis; type: ADME, organism-based; conditions: in vivo
[11] = molecular target: Phosphatidylinositol 4,5-bisphosphate 3-kinase catalytic subunit alpha isoform (Homo sapiens, UniProt P42336); experiment: Inhibition of PI3Kalpha (unknown origin) using PIP2 as substrate preincubated for 1 hr followed by substrate addition and measured after 60 mins in presence of ATP by ADP-glo assay
Sequence of Phosphatidylinositol 4,5-bisphosphate 3-kinase catalytic subunit alpha isoform (P42336 whole entry, canonical isoform): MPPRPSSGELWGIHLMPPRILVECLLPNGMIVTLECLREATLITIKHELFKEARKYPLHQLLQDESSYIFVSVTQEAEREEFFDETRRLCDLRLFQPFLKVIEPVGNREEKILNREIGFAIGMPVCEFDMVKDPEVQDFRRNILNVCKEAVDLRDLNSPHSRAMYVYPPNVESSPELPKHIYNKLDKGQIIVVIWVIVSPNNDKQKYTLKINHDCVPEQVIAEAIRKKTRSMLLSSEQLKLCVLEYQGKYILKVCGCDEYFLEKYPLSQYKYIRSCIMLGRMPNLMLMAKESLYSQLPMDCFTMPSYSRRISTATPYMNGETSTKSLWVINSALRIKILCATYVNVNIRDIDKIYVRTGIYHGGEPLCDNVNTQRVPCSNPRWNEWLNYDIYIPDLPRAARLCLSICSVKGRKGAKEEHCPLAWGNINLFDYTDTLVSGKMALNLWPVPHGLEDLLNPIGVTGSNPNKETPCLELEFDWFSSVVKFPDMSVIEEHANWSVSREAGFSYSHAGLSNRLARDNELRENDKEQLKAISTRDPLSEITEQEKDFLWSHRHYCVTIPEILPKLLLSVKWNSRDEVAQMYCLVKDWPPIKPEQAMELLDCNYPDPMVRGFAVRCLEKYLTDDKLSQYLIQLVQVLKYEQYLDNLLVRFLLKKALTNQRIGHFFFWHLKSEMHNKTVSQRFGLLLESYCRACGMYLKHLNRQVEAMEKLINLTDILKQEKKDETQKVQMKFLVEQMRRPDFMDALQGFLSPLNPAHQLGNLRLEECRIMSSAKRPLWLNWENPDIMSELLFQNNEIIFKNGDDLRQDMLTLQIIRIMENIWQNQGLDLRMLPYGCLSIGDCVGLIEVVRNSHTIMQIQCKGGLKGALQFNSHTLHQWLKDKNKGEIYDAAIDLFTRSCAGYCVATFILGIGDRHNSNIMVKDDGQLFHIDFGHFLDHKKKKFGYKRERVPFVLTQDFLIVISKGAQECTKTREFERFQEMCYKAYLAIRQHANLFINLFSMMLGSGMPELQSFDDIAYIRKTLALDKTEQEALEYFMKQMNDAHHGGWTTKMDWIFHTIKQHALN

[12] = Metabolic stability in rat hepatocyte assessed as intrinsic clearance per 10^8 cells at 0.5 uM by LC-MS/MS analysis; type: ADME, cell-based; conditions: hepatocytes
[13] = Half life in C57BL/6 mouse at 0.5 mg/kg, iv; type: ADME, organism-based; conditions: in vivo
[14] = molecular target: T1, Phosphatidylinositol 4,5-bisphosphate 3-kinase catalytic subunit gamma isoform (Homo sapiens, UniProt P48736); experiment: Inhibition of P13Kgamma in LPS and IFNgamma stimulated human M1 macrophage assessed as increase in IL12B expression at 1 uM pretreated for 1 hr followed by LPS and IFNgamma stimulation by qRT-PCR analysis; type: cell-based
Target sequence in this assay (P48736 whole entry, looked up, canonical isoform): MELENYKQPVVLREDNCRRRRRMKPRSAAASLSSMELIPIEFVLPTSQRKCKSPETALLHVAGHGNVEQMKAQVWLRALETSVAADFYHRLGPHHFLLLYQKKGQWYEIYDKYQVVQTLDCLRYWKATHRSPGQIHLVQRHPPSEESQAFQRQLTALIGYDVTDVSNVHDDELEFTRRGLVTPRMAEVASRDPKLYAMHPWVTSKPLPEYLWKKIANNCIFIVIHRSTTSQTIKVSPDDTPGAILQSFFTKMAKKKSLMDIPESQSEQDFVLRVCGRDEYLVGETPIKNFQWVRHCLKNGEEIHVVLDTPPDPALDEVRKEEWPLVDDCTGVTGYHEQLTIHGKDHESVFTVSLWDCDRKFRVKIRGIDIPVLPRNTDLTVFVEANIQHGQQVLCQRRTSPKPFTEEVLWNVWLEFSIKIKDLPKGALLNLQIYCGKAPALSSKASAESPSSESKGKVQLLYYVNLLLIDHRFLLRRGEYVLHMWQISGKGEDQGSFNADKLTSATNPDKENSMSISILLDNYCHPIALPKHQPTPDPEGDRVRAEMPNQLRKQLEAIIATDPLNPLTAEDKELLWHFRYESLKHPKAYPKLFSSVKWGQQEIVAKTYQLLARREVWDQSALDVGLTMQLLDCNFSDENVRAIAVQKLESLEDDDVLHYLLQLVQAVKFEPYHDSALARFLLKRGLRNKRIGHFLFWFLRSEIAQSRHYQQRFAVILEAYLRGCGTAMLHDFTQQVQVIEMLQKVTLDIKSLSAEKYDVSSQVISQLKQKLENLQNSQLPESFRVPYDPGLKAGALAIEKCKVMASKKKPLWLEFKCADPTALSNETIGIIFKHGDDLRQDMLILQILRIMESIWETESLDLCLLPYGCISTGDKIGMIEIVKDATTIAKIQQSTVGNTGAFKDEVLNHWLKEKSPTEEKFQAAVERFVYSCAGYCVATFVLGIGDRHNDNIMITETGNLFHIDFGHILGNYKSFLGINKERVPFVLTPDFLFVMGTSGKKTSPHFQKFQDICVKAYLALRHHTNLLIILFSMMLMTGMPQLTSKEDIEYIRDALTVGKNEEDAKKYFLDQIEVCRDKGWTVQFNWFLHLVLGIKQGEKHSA

[15] = Half life in Beagle dog at 1 mg/kg, iv; type: ADME, organism-based, Canis lupus familiaris; conditions: in vivo
[16] = MRT (infinity) in C57BL/6 mouse at 0.5 mg/kg, iv; type: ADME, organism-based; conditions: in vivo
[17] = AUC(0 to infinity) in Sprague-Dawley rat at 10 mg/kg, po measured up to 24 hrs by LC-MS/MS analysis analysis; type: ADME, organism-based; set-up: dose 10 mg/kg, time < 24 hrs, route po; conditions: in vivo
[18] = Metabolic stability in human hepatocytes assessed as intrinsic clearance per 10^6 cells at 0.5 uM by LC-MS/MS analysis; type: ADME, cell-based, Hepatocyte; conditions: read-out: CLH
[19] = Volume of distribution at steady state in Sprague-Dawley rat at 1 mg/kg, iv measured up to 8 hrs by LC-MS/MS analysis; type: ADME, organism-based; conditions: in vivo
[20] = species: Homo sapiens; experiment: Selectivity ratio of IC50 for inhibition of PI3Kbeta (unknown origin) to IC50 for inhibition of PI3Kgamma (unknown origin)
[21] = Plasma protein binding in cynomolgus monkey at 1 mg/kg, iv; type: ADME, organism-based, Macaca fascicularis; conditions: read-out: PPB (converted)
[22] = Half life in Sprague-Dawley rat at 1 mg/kg, iv measured up to 8 hrs by LC-MS/MS analysis; type: ADME, organism-based; conditions: in vivo
[23] = molecular target: T1, Phosphatidylinositol 4,5-bisphosphate 3-kinase catalytic subunit gamma isoform; experiment: Inhibition of PI3Kgamma (unknown origin) in […] stimulated human THP-1 cells assessed as reduction in Akt phosphorylation level at Ser473 residue preincubated for 60 mins followed by rhMCP-1 stimulation and measured after 2 mins by AlphaLisa assay; type: cell-based
Target sequence in this assay (P48736 whole entry, canonical isoform): as the sequence (P48736 whole entry, looked up, canonical isoform) above

[24] = molecular target: T1, Phosphatidylinositol 4,5-bisphosphate 3-kinase catalytic subunit gamma isoform; experiment: Inhibition of P13Kgamma in LPS and IFNgamma stimulated human M1 macrophage assessed as increase in IL1B expression at 1 uM pretreated for 1 hr followed by LPS and IFNgamma stimulation by qRT-PCR analysis; type: cell-based
Target sequence in this assay (P48736 whole entry, looked up, canonical isoform): as above

[25] = Volume of distribution at steady state in C57BL/6 mouse at 0.5 mg/kg, iv; type: ADME, organism-based; conditions: in vivo
[26] = AUC(0 to infinity) in cynomolgus monkey at 1 mg/kg, iv; type: ADME, organism-based, Macaca fascicularis; set-up: time infinity, dose 1 mg/kg, route iv; conditions: in vivo
[27] = molecular target: T2, Phosphatidylinositol 4,5-bisphosphate 3-kinase catalytic subunit delta isoform (Homo sapiens, UniProt O00329); experiment: Inhibition of PI3Kdelta (unknown origin) using PIP2 as substrate preincubated for 1 hr followed by substrate addition and measured after 60 mins in presence of ATP by ADP-glo assay
T2 sequence (O00329 whole entry): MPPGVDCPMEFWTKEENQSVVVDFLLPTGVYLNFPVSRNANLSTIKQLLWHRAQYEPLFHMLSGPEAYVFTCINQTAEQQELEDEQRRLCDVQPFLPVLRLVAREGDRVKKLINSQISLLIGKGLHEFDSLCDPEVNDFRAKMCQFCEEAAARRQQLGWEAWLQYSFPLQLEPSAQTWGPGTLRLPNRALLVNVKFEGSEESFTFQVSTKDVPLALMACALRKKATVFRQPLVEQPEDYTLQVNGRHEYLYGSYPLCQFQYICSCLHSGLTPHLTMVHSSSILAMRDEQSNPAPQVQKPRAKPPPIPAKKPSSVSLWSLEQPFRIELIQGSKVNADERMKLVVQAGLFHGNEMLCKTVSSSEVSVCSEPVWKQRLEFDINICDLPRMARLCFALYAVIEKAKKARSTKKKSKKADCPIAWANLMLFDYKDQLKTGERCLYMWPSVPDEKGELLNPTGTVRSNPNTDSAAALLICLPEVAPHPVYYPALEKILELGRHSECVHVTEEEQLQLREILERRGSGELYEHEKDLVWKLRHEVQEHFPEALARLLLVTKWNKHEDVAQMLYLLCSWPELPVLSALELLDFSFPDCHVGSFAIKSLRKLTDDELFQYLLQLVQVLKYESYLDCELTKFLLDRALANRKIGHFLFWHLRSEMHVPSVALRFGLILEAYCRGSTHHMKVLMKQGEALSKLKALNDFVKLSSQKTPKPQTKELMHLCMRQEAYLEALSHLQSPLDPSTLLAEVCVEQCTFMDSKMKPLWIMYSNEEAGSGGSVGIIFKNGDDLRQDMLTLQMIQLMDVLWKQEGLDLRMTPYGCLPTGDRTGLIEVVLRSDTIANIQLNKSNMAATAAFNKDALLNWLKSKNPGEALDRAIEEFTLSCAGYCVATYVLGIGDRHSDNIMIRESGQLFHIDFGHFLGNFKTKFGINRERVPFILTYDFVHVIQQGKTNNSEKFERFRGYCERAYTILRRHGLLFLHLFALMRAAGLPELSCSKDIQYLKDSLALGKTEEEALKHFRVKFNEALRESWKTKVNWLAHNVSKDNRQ

[28] = Volume of distribution at steady state in Beagle dog at 1 mg/kg, iv; type: ADME, organism-based, Canis lupus familiaris; conditions: in vivo
[29] = molecular target: T1, Phosphatidylinositol 4,5-bisphosphate 3-kinase catalytic subunit gamma isoform; experiment: Inhibition of PI3Kgamma (unknown origin) using PIP2 as substrate preincubated for 1 hr followed by substrate addition and measured after 60 mins in presence of ATP by ADP-glo assay
Target sequence in this assay (P48736 whole entry, canonical isoform): as the sequence (P48736 whole entry, looked up, canonical isoform) above

[30] = Cmax in Sprague-Dawley rat at 10 mg/kg, po measured up to 24 hrs by LC-MS/MS analysis analysis; type: ADME, organism-based; set-up: dose 10 mg/kg, time < 24 hrs, route po; conditions: in vivo
[31] = Plasma protein binding in Beagle dog at 1 mg/kg, iv; type: ADME, organism-based, Canis lupus familiaris; conditions: read-out: PPB (converted)

AUC(0-inf) [1] [ng·h/mL]	Ratio IC50 [2]	bioavailability [3] [%]	Papp A→B [4] [×10⁻⁶ cm/s]	AUC(0-inf) [5] [ng·h/mL]	clearance [6] [mL/min/kg]	clearance [7] [mL/min/kg]	AUC(0-inf) [8] [ng·h/mL]	clearance [9] [mL/min/kg]	clearance [10] [mL/min/kg]	IC50 [11] [nM]	hepatocyte intrinsic clearance [12] [µL/min]	half-life [13] [h]	inhibition [14]	half-life [15] [h]	MRT inf [16] [h]	AUC(0-inf) [17] [ng·h/mL]	hepatocyte CLint at 0.5 µM [18] [µL/min/1e6 cells]	Vdss [19] [L/kg]	Ratio IC50 [20]	Structure (SMILES)	other results
488	946	4	4.7	1240	14	17.2	797	17.7	20.8	2650	6.07	3.93	Active	3.5	2.03	249	< 1.2	2.91	7040	C[C@@H](C1CC1)N1Cc2cc(-c3ccn4nc(N)c(C(=O)N[C@H]5CC[C@@](C)(O)CC5)c4n3)cc(OC(F)(F)F)c2C1=O	fraction unbound [21]: 0.05; half-life [22]: 2.17 h; IC50 [23]: 38 nM; inhibition [24]: Active; Vdss [25]: 2.09 L/kg; AUC(0-inf) [26]: 949 ng·h/mL; IC50 [27]: 1650 nM; Vdss [28]: 3.24 L/kg; IC50 [29]: 2.8 nM; Cmax [30]: 25 ng/mL; fraction unbound [31]: 0.048
565	657	102	16.8	1800	9.67	14.7	630	18	27.5	1250	2.62	4.98	Active	4.85	1.87	8160	< 1.2	3.03	3680	C[C@@H](C1CC1)N1Cc2cc(-c3ccn4nc(N)c(C(=O)N[C@H]5CC[C@@](C)(O)CC5)c4n3)cc(OC(F)F)c2C1=O	fraction unbound [21]: 0.034; half-life [22]: 1.89 h; IC50 [23]: 34 nM; inhibition [24]: Active; Vdss [25]: 1.66 L/kg; AUC(0-inf) [26]: 925 ng·h/mL; IC50 [27]: 1080 nM; Vdss [28]: 3.55 L/kg; IC50 [29]: 1.9 nM; Cmax [30]: 703 ng/mL; fraction unbound [31]: 0.034
